This is an account of results in US20060281818A1, “Method for treating mucosal disorders” (SUCAMPO AG, NORTH CAROLINA STATE UNIVERSITY, priority 2005, published 2006).

Assay [1] has as its system ischemic-injured porcine ileal mucosa. The experiment in a line: Morphometric assessment of epithelial restitution (histological examination). Type of assay: cell-based. To be noted: Indo 5 μM, COMPOUND A 1 μM, mean±SE, n=3. On the procedure: (§1) Six to eight-week-old Yorkshire crossbred pigs of either sex were housed individually, and maintained on a commercial pelleted feed. Pigs were held off feed for 24 hours prior to experimental surgery. General anesthesia was induced with xylazine (1.5 mg/kg, IM), ketamine (11 mg/kg, IM), and thiopental (15 mg/kg, IV) and was maintained with intermittent infusion of thiopental (6-8 mg/kg/hr). Pigs were placed on a heating pad and ventilated with 100% O2 via a tracheotomy using a time-cycled ventilator. The jugular vein and carotid artery were cannulated and blood gas analysis was performed to confirm normal pH and partial pressures of CO2 and O2. Lactated Ringers solution was administered intravenously at a maintenance rate of 15 ml/kg/hr. The ileum was approached via ventral midline incision. Ileal segments were delineated by ligating the intestine at 10 cm intervals, and subjected to ischemia by occluding the local mesenteric blood supply for 45 minutes.
Tissues were taken at 0, 60, and 180 minutes for routine histologic evaluation. Tissues were sectioned (5 μm) and stained with hematoxylin and eosin. For each tissue, 3 sections were evaluated. Four well oriented villi and crypts were identified in each section. Villus length was obtained using a micrometer in the eye piece of a light microscope. In addition, the height of the epithelial-covered portion of each villus was measured. The surface area of the villus was calculated using the formula for the surface area of a cylinder. The formula was modified by subtracting the area of the base of the villus, and multiplying by a factor accounting for the variable position at which each villus was cross-sectioned (Gastroenterology 1993; 104:440-471). The percentage of the villous surface area that remained denuded was calculated from the total surface area of the villus and the surface area of the villus covered by epithelium. The percent denuded villous surface area was used as an index of epithelial restitution.
In table 1, values represents means±SE for % villus surface area denuded and Villus height; n=3. Tissues were mammalian ileum subjected to 45 min ischemia in vivo, after which they were mounted in Ussing chambers for monitoring of recovery responses. Tissues were harvested at 0 min, 60 min, and 180 min post-ischemia during the in vitro recovery phase, fixed in 10% buffered formalin, and processed for histological examination according to standard protocols. Indomethacin (Indo) was administered to select tissues a 5 μM, and COMPOUND A was given at 1 μM. Values lacking common superscript.(*,#) differ by P<0.05.

A further assay has as its system barrier function. To be noted: Am. J. Physiol. Gastrointest. Liver Physiol. 281:G375-81, 2001; cited from earlier work.
The subject of assay [2] is ischemia-injured porcine ileum. Briefly: Ussing chamber: short circuit current (Isc) and transepithelial electrical resistance (TER). It is filed as cell-based. To be noted: for absolute change in Isc (Δ Isc): mean±SE. On the procedure: as §1
Following the 45-minute ischemic period, tissues were harvested from the pig and the mucosa was stripped from the seromuscular layer in oxygenated (95% O2/ 5% CO2) Ringer's solution (mmol/l: Na^+, 154; K+, 6.3; Cl^−, 137; HCO3^−, 24; pH 7.4) containing 5×10^−6 M indomethacin to prevent endogenous PG production during the stripping procedure. Tissues were then mounted in 3.14 cm^2 aperture Ussing chambers. For Ussing chamber experiments, ileal tissues from one pig were mounted on multiple Ussing chambers and subjected to different in vitro treatments. Tissues were bathed on the serosal and mucosal sides with 10 ml Ringer's solution. The serosal bathing solution contained 10 mM glucose, and was osmotically balanced on the mucosal side with 10 mM mannitol. Bathing solutions were oxygenated (95% O2/5% CO2) and circulated in water-jacketed reservoirs. The spontaneous potential difference (PD) was measured using Ringer-agar bridges connected to calomel electrodes, and the PD was short-circuited through Ag—AgCl electrodes using a voltage clamp that corrected for fluid resistance. Transepithelial electrical resistance (Ω.cm^2) was calculated from the spontaneous PD and short-circuit current (Isc). If the spontaneous PD was between −1.0 and 1.0 mV, tissues were current clamped at ±100 μA for 5 seconds and the PD recorded. Short-circuit current and PD were recorded at 15-minute intervals over a 4-hour experiment.
After tissues were mounted on Ussing chambers, tissues were allowed to acclimate for a period of 30 minutes to achieve stable baseline measurements. Tissues were then treated with varying doses of COMPOUND A (13,14-dihydro-15-keto-16,16-difluoro-PGE1) (0.01 μM, 0.1 μM, and 1 μM) by adding the compound to the mucosal bathing solution (t=30 min).
Data were reported as means±SE. All data were analyzed by using an ANOVA for repeated measures, except where the peak response was analyzed by using a standard one-way ANOVA (Sigmastat, Jandel Scientific, San Rafael, Calif.). A Tukey's test was used to determine differences between treatments following ANOVA.

Assay [3] concerns ischemia-injured porcine ileum. The experiment in a line: Mucosal-to-serosal 3H-mannitol flux in Ussing chamber. Type of assay: cell-based. To be noted: 1 μM; n=4; P<0.05. On the procedure: as §1, with “Lactated Ringers solution was administered intravenously at a maintenance rate of 15 ml/kg/hr. The ileum was approached via ventral midline incision. Ileal segments were delineated by ligating the intestine at 10 cm intervals, and subjected to ischemia by occluding the local mesenteric blood supply for 45 minutes.” left out
Following the 45-minute ischemic period, tissues were harvested from the pig and the mucosa was stripped from the seromuscular layer in oxygenated (95% O2/ 5% CO2) Ringer's solution (mmol/l: Na^+, 154; K+, 6.3; Cl^−, 137; HCO3^−, 24; pH 7.4) containing 5×10^−6 M indomethacin to prevent endogenous PG production during the stripping procedure. […] The spontaneous potential difference (PD) was measured using Ringer-agar bridges connected to calomel electrodes, and the PD was short-circuited through Ag—AgCl electrodes using a voltage clamp that corrected for fluid resistance. Transepithelial electrical resistance (Ω.cm^2) was calculated from the spontaneous PD and short-circuit current (Isc). […]

In assay [4] the test system is ischemia-injured porcine ascending colon. Briefly: Ussing chamber: short circuit current and TER in colon. To be noted: ischemic porcine ascending colon. Type of assay: cell-based. The source says:
(§2) According to the same procedure described in Example 1 except for using colon instead of ileum, recovery of mucosal barrier function in ischemic condition by the COMPOUND A was investigated.
(§3) A) Change in short circuit current response to COMPOUND A in ischemia-injured porcine ascending colon, B) Trans epithelial electrical resistance (TER) in response to COMPOUND A in ischemia-injured porcine ascending colon and C) Serosal to mucosal ^3H-mannitol fluxes in response to COMPOUND A in ischemia-injured porcine ascending colon were shown in FIGS. 4 to 6 respectively.

For assay [5] the test system is unchanged. The experiment in a line: Serosal to mucosal 3H-mannitol fluxes in colon. Type of assay: cell-based. To be noted: ischemic porcine ascending colon, FIG. 6.
Source text: as §2, §3

The next assay concerns mammary carcinoma. The experiment in a line: Incidence of mammary carcinoma, 104-week oral gavage study. Type of assay: in vivo. To be noted: 104 weeks, female rats. As to the method: Female Crl:CD(SD)IGS BR VAF/Plus rats were assigned to 4 study groups (65/group). Groups 2 through 4 received 20, 100, or 400 μg/kg/day of COMPOUND A, respectively, by oral gavage for 104 weeks. The control group (Group 1) received 10 the vehicle, a 1% aqueous solution of Polysorbate 80. The dose volume was 5 mL/kg/day for all groups. When unscheduled death of animal occurred during the study period, a necropsy was performed on the animal. After 104 weeks of treatment, all surviving animals were sacrificed and necropsied. Each rat was evaluated microscopically for the occurrence of mammary carcinoma.

Setting [6] is: 1 μM applied to mucosal side, indomethacin 5×10^−6 M Ringer's, P<0.01.

“Also recorded” adds a separate entry of the source. Marks after values point to notes of the source that are not given here.

With `COc1ccc2c(c1)c(CC(=O)O)c(C)n2C(=O)c1ccc(Cl)cc1` [Indo, Indomethacin, reference compound], the “Epithelial surface area denuded (%)” value in assay [1] (recovery time 60 min) was 6.6 ± 2.6* %; in assay [1] (recovery time 180 min) it was 0 ± 0** %. The “Villus height (mm)” value is on record as 0.16 ± 0.01* mm in assay [1] (recovery time 60 min) and 0.14 ± 0.03* mm in assay [1] (recovery time 180 min).

For deoxy-PGE1, the “effects on barrier function (result in words)” value in the assay with barrier function is “had not effects”.

For the compound `CCCCC(F)(F)C(=O)CCC1C(O)CC(=O)C1CCCCCCC(=O)O` (centres unmarked) [COMPOUND A, 13,14-dihydro-15-keto-16,16-difluoro-PGE1], the “TER (result in words)” value in assay [2] (0.01 μM, 0.1 μM and 1 μM applied to mucosal side) is given as “dose-dependent increases in TER”; in assay [4] (FIG. 5), “increased”. In addition, the entries for the “absolute change in Isc (Δ Isc)” value in assay [2] (0.01 μM), in assay [2] (0.1 μM) and in assay [2] (1 μM) were 2±0.8, 16±4.5 and 29±5.1, respectively. In assay [2] (0.1 μM and 1 μM doses, added after 30-min equilibration, n=6), the “transepithelial electrical resistance (TER) (FIG. 1 legend, words)” value was “marked elevations in transepithelial electrical resistance (TER)”. Moreover, the “Isc, electrogenic Cl− secretion (result in words)” value in assay [2] (0.1 μM and 1 μM, dose-dependent) is “sharp and significant (P<0.05) peaks in Isc”. Besides, the “increase in TER” value in assay [2] (setting [6]) was 2 fold. Also, the ΔTER in assay [2] (setting [6]) was 26 Ω. The “Cl− secretion indicated by Isc and ΔIsc (FIG. 2 legend, words)” value in assay [2] (increasing doses, n=6) is “Significant (P<0.05) increases in Cl^− secretion”. For the same compound, the “3H-mannitol mucosal-to-serosal flux (result in words)” value in assay [3] is reported as “return of ^3H-mannitol flux to non-ischemic control levels; also recorded: reduced ^3H-mannitol mucosal-to-serosal fluxes to non-ischemic control levels”. The “Epithelial surface area denuded (%)” value is recorded as 4.2 ± 2.5* % in assay [1] (recovery time 60 min) and 0 ± 0** % in assay [1] (recovery time 180 min). Moreover, the “Villus height (mm)” value in assay [1] (recovery time 60 min) is reported as 0.21 ± 0.02* mm; in assay [1] (recovery time 180 min), 0.20 ± 0.01* mm. Further, the “Isc (result in words)” value in assay [4] (FIG. 4) was “increased Isc”. Also, the “serosal-to mucosal fluxes of 3H-mannitol (result in words)” value in assay [5] is “recuded serosal-to mucosal fluxes of ^3H-mannitol”. Further, the “Number of animals with mammary carcinoma” value in the assay on mammary carcinoma (20 μg/kg/day oral gavage, 65 examined (control 12 of 65)) came to 6; in the assay with mammary carcinoma (100 μg/kg/day oral gavage, 65 examined (control 12 of 65)), 5; in the assay on mammary carcinoma (400 μg/kg/day oral gavage, 63 examined (control 12 of 65)), 4. Also, the “incidence of mammary carcinoma (result in words)” value in the assay on mammary carcinoma (20, 100 or 400 μg/kg/day oral gavage) is “reduced the incidence of mammary carcinoma”.
